Experimental data reported in patent publication US20050130134A1, “Means and methods for monitoring non-nucleoside reverse transcriptase inhibitor antiretroviral therapy and guiding therapeutic decisions in the treatment HIV-AIDS” (ViroLogic, Inc., priority 2000, published 2005).
Several values for one entry are separate records, joined by “and”; a condition that tells them apart may be missing. Equal values may be shown once. Entries after “also recorded” stand apart in the source; their conditions may differ.

What was measured:
[1] = test system: HIV-1 reverse transcriptase P236L (P236L-RTV); assay: Phenotypic susceptibility assay, site directed mutant P236L-RTV; assay type: cell-based; conditions: P236L alone versus wild type reference RTV
Procedure: (§1) Transfections were performed using a calcium-phosphate precipitation procedure. […] Cell lysates were assayed for luciferase activity (FIG. 3). […] The drug inhibition curves are shown in (FIG. 3).
Resistance test vectors were constructed containing the P236L mutation alone and in combination with other known drug resistance mutations (K103N, Y181C) that are known to modulate the susceptibility of HIV-1 to NNRTIs. […] The P236L mutation was also introduced into a RTV containing mutations at K103N, Y181C or both (K103N+Y181C).

[2] = test system: HIV-1 reverse transcriptase A98G + G190S (A98G-G190S-RTV); assay: Phenotypic susceptibility assay, site directed mutant A98G-G190S-RTV; assay type: cell-based; conditions: >1 loss, <1 increased susceptibility
Procedure: (§2) Resistance tests were carried out with resistance test vectors using two host cell types. Resistance test vector viral particles were produced by a first host cell (the resistance test vector host cell) that was prepared by transfecting a packaging host cell with the resistance test vector and the packaging expression vector. The resistance test vector viral particles were then used to infect a second host cell (the target host cell) in which the expression of the indicator gene is measured.
(§3) The resistance test vectors containing a functional luciferase gene cassette were constructed and host cells were transfected with the resistance test vector DNA. The resistant test vectors contained patient-derived reverse transcriptase and protease sequences that were either susceptible or resistant to the antiretroviral agents, such as nucleoside reverse transcriptase inhibitors, non-nucleoside reverse transcriptase inhibitors and protease inhibitors. The resistance test vector viral particles produced by transfecting the resistance test vector DNA into host cells, either in the presence or absence of protease inhibitors, were used to infect target host cells grown either in the absence of NRTI or NNRTI or in the presence of increasing concentrations of the drug. […] The IC50 values were determined by plotting percent drug inhibition vs. log10 drug concentration.
(§4) Host cells were seeded in 10-cm-diameter dishes and were transfected several days after plating with resistance test vector plasmid DNA and the envelope expression vector. […] HIV capsid protein (p24) levels in the harvested cell culture media were determined by an EIA method as described by the manufacturer (SIAC; Frederick, Md.). […] The inhibitory effect of the drug was determined using the following equation: % luciferase inhibition=1-(RLUluc[drug]÷RLUluc)×100 where RLUluc [drug] is the relative light unit of luciferase activity in infected cells in the presence of drug and RLUluc is the Relative Light Unit of luciferase activity in infected cells in the absence of drug. […]

[3] = test system: HIV-1 reverse transcriptase Y181I (Y181I-RTV); assay: Phenotypic susceptibility assay, site directed mutant Y181I-RTV; assay type: cell-based; conditions: >1 loss of susceptibility
Procedure: as §2, §3, §4

[4] = test system: HIV-1 reverse transcriptase K103N (K103N-RTV); assay: Phenotypic susceptibility assay, site directed mutant K103N-RTV; assay type: cell-based; conditions: for fold change in susceptibility compared to wild type control RTV: K103N-RTV, >1 loss of susceptibility; for change in susceptibility / resistance: K103N mutation
Procedure: as §2
(§5) The resistance test vectors containing a functional luciferase gene cassette were constructed and host cells were transfected with the resistance test vector DNA. The resistant test vectors contained patient-derived reverse transcriptase and protease sequences that were either susceptible or resistant to the antiretroviral agents, such as nucleoside reverse transcriptase inhibitors, non-nucleoside reverse transcriptase inhibitors and protease inhibitors. The resistance test vector viral particles produced by transfecting the resistance test vector DNA into host cells, either in the presence or absence of protease inhibitors, were used to infect target host cells grown either in the absence of NRTI or NNRTI or in the presence of increasing concentrations of the drug. The amount of luciferase activity produced in infected target host cells in the presence of drug was compared to the amount of luciferase produced in infected target host cells in the absence of drug. Drug resistance was measured as the amount of drug required to inhibit by 50% the luciferase activity detected in the absence of drug (inhibitory concentration 50%, IC50). The IC50 values were determined by plotting percent drug inhibition vs. log10 drug concentration.
(§6) Host cells were seeded in 10-cm-diameter dishes and were transfected several days after plating with resistance test vector plasmid DNA and the envelope expression vector. Transfections were performed using a calcium-phosphate precipitation procedure. The cell culture media containing the DNA precipitate was replaced with fresh medium, from one to 24 hours, after transfection. Cell culture media containing resistance test vector viral particles was harvested one to four days after transfection and was passed through a […] filter before being stored at −80° C. HIV capsid protein (p24) levels in the harvested cell culture media were determined by an EIA method as described by the manufacturer (SIAC; Frederick, Md.). Before infection, target cells (293 and 293/T) were plated in cell culture media. Control infections were performed using cell culture media from mock transfections (no DNA) or transfections containing the resistance test vector plasmid DNA without the envelope expression plasmid. One to three or more days after infection the media was removed and cell lysis buffer (Promega) was added to each well. […] The inhibitory effect of the drug was determined using the following equation: % luciferase inhibition=1-(RLUluc[drug]÷RLUluc)×100 where RLUluc [drug] is the relative light unit of luciferase activity in infected cells in the presence of drug and RLUluc is the Relative Light Unit of luciferase activity in infected cells in the absence of drug. IC50 values were obtained from the sigmoidal curves that were generated from the data by plotting the percent inhibition of luciferase activity vs. the log10 drug concentration. […]

[5] = test system: HIV-1 reverse transcriptase G190S (G190S-RTV); assay: Phenotypic susceptibility assay, site directed mutant G190S-RTV; assay type: cell-based; conditions: for fold change in susceptibility compared to wild type control RTV: G190S-RTV, >1 loss, <1 increased susceptibility; for change in susceptibility: G190S-RTV versus wild type reference RTV
Procedure: as §2, §5, §6

[6] = test system: HIV-1 reverse transcriptase Y188C (Y188C-RTV); assay: Phenotypic susceptibility assay, site directed mutant Y188C-RTV; assay type: cell-based; conditions: >1 loss of susceptibility
Procedure: as §2, §3, §4

[7] = test system: HIV-1 reverse transcriptase K101E + G190A (K101E-G190A-RTV); assay: Phenotypic susceptibility assay, site directed mutant K101E-G190A-RTV; assay type: cell-based; conditions: >1 loss of susceptibility
Procedure: as §2, §3, §4

[8] = test system: HIV-1 reverse transcriptase Y181C (Y181C-RTV); assay: Phenotypic susceptibility assay, site directed mutant Y181C-RTV; assay type: cell-based; conditions: for resistance profile: Y181C site directed mutant, FIG. 5
Procedure: as §2, §3, §4

[9] = test system: HIV-1 reverse transcriptase V189L (V189L-RTV); assay: Phenotypic susceptibility assay, site directed mutant V189L-RTV; assay type: cell-based; conditions: >1 loss of susceptibility
Procedure: as §2, §3, §4

[10] = test system: HIV-1 reverse transcriptase E138A + Y188L (E138A-Y188L-RTV); assay: Phenotypic susceptibility assay, site directed mutant E138A-Y188L-RTV; assay type: cell-based; conditions: >1 loss of susceptibility
Procedure: as §2, §3, §4

[11] = test system: HIV-1 reverse transcriptase K103N + G190A (K103N-G190A-RTV); assay: Phenotypic susceptibility assay, site directed mutant K103N-G190A-RTV; assay type: cell-based; conditions: K103N-G190-RTV (K103N + G190A); >1 loss of susceptibility
Procedure: as §2, §3, §4

[12] = test system: HIV-1 reverse transcriptase E138A (E138A-RTV); assay: Phenotypic susceptibility assay, site directed mutant E138A-RTV; assay type: cell-based; conditions: >1 loss of susceptibility
Procedure: as §2, §3, §4

[13] = test system: T66I integrase site-directed mutant; assay: Phenotypic susceptibility assay, integrase T66I mutated resistance test vector; assay type: cell-based, HIV; conditions: {}
Procedure: as §1
A resistance test vector containing the threonine to isoleucine mutation at position 66 of the integrase protein (T66I) was constructed and tested using the phenotypic assay described earlier.

[14] = test system: HIV-1 reverse transcriptase A98G (A98G-RTV); assay: Phenotypic susceptibility assay, site directed mutant A98G-RTV; assay type: cell-based; conditions: >1 loss of susceptibility
Procedure: as §2, §3, §4

[15] = test system: HIV-1 reverse transcriptase P225H (P225H-RTV); assay: Phenotypic susceptibility assay, site directed mutant P225H-RTV; assay type: cell-based; conditions: P225H alone versus wild type control RTV
Procedure: as §1
Resistance test vectors were constructed containing the P225H mutation alone and in combination with other known drug resistance mutations (K103N, Y181C) known to modulate the HIV susceptibility to NNRTIs. […] (Sakar G and Sommar S S (1994) Biotechniques 8(4), 404-407). […] The P225H mutation was also introduced into a RTV containing additional mutations at K103N, Y181C or both (K103N+Y181C).

SMILES	change in susceptibility [1]	fold change in susceptibility compared to wild type control RTV [2]	fold change in susceptibility compared to wild type control RTV [3]	fold change in susceptibility compared to wild type control RTV [4]	fold change in susceptibility compared to wild type control RTV [5]	fold change in susceptibility compared to wild type control RTV [6]	fold change in susceptibility compared to wild type control RTV [7]	fold change in susceptibility compared to wild type control RTV ([8]; Y181C-RTV, >1 loss of susceptibility)	fold change in susceptibility compared to wild type control RTV [9]	fold change in susceptibility compared to wild type control RTV [10]	fold change in susceptibility compared to wild type control RTV [11]	fold change in susceptibility compared to wild type control RTV [12]	increase in susceptibility compared to wild type control RTV [13]	fold change in susceptibility compared to wild type control RTV [14]	change in susceptibility [15]	change in susceptibility / resistance [4]	change in susceptibility [5]	resistance profile [8]
O=C1Nc2ccc(Cl)cc2[C@@](C#CC2CC2)(C(F)(F)F)O1 [efavirenz]	no effect	greater than 250 fold	1.4 fold	30 fold	8 fold	20 fold	120 fold	3 fold and 4 fold	1.3 fold	88 fold	215 fold	1.4 fold	8 to 10 fold	3 fold	little or no change			
CC(C)Nc1cccnc1N1CCN(C(=O)c2cc3cc(NS(C)(=O)=O)ccc3[nH]2)CC1 [delavirdine]	less susceptible; also recorded: significant reduction	0.8 fold	20 fold	50 fold	0.5 fold	3 fold	2 fold		1.8 fold	75 fold	40 fold	1.6 fold	8 to 10 fold	3 fold	more susceptible; also recorded: increase; also recorded: increases susceptibility	reduced susceptibility; also recorded: resistance	slightly more susceptible; also recorded: increase; also recorded: slightly increase susceptibility	resistance
Cc1ccnc2c1NC(=O)c1cccnc1N2C1CC1 [nevirapine]	no significant change; also recorded: little or no reduction	greater than 800 fold	740 fold	55 fold	75 fold	30 fold	greater than 800 fold		1.3 fold	greater than 800 fold	greater than 800 fold	1.3 fold	8 to 10 fold	8 fold	No significant change; also recorded: little or no change	reduced susceptibility; also recorded: resistance	markedly less susceptible; also recorded: decrease; also recorded: greatly reduce susceptibility	resistance
